Like-named read-outs stand apart in the source and are kept apart here.
Legend:
[1] = biological target: T1, human glutamine synthetase (hGS) (Homo sapiens, UniProt P15104); assay: microtiter phosphate-release GS activity assay, Lineweaver-Burk and secondary plot; IC50 […]; assay type: biochemical
T1 construct: gene GLUL

[2] = biological target: T1, human glutamine synthetase (hGS); assay: as above; assay type: biochemical; remark: listed apart in the source

T1 sequence (P15104 2-373): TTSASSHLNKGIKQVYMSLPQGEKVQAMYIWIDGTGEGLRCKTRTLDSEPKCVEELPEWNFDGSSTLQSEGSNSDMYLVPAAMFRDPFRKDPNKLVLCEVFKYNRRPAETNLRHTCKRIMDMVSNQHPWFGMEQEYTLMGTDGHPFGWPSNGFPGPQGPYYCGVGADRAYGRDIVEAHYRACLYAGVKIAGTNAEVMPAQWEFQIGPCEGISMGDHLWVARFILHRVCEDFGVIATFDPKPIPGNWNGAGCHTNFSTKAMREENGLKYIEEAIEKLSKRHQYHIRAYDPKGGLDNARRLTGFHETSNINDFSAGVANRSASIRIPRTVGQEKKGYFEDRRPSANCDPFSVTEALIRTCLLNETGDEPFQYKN

Row | Structure (SMILES) | Ki [1] [µM] | Ki [2] [µM]
1 | CP(=O)(O)CCC(N)C(=O)O (centres unmarked) [Glufosinate] | ~19.5 | 
2 | CS(=N)(=O)CCC(N)C(=O)O (centres unmarked) [Methionine sulfoximine] |  | 880

Reference: PMC7539200, “Glufosinate constrains synchronous and metachronous metastasis by promoting anti‐tumor macrophages” (EMBO Molecular Medicine, 2020)
